Experimental data: publication PMC10948610, “Profiling of Petroselinum sativum (mill.) fuss phytoconstituents and assessment of their biocompatibility, antioxidant, anti-aging, wound healing, and antibacterial activities” (Frontiers in Nutrition, 2024)

What was measured:
Assay in all cases: in vitro enzyme inhibition, optical density read-out
Assay type in all cases: biochemical
Settings in all cases: positive control; substrate, pH and temperature not given
Collagenase = biological target: T1, Collagenase
T1 construct: gene colG; usual assay enzyme is native clostridial collagenase, human MMP1 possible
From the text: in vitro enzyme inhibition, optical density read-out on Collagenase

Elastase = biological target: T2, Elastase
T2 construct: gene CELA1; usual assay enzyme is native porcine pancreatic elastase, human neutrophil elastase possible
From the text: in vitro enzyme inhibition, optical density read-out on Elastase

Hyaluronidase = biological target: T3, Hyaluronidase
T3 construct: gene SPAM1; usual assay enzyme is native bovine testicular hyaluronidase
From the text: in vitro enzyme inhibition, optical density read-out on Hyaluronidase

| SMILES | Collagenase / IC50 (Collagenase) [µg/mL] | Elastase / IC50 (Elastase) [µg/mL] | Hyaluronidase / IC50 (Hyaluronidase) [µg/mL] |
| --- | --- | --- | --- |
| O=c1c(O)c(-c2ccc(O)c(O)c2)oc2cc(O)cc(O)c12 [Quercetin] | 24.83 ± 1.8 |  |  |
| O=c1cc(CO)occ1O [Kojic acid] |  | 21.60 ± 0.9 | 14.46 ± 0.6 |
